≈ marks a conversion by molar mass, not a printed value. Where two headings read alike, the source gives them in different places.
How the values were obtained:
S. aureus SPase = molecular target: T1, S. aureus SPase (Staphylococcus aureus, UniProt P0A070); assay: Steady state binding constant (Kd) determination by fluorescence increase
T1 construct: Full length His-tagged S. aureus SPase protein was expressed similarly; His-tag; made in house; host or cells: E. coli BL21(DE3)
Protocol: (§1) Full length His-tagged E. coli SPase proteins were expressed in E. coli BL21(DE3) containing the plasmid pET23-lepB, P. A. Smith et al. Chem Biol 2010, 1223-1231. Briefly, saturated overnight cultures grown in 20 ml of Luria-Bertani medium supplemented with ampicillin were subcultures into 1.5 L of Luria-Bertani, and shaken at 37° C. until an optical density at 600 nm of 0.4-0.5 was achieved. Protein expression was induced with Isopropyl β-D-1-thiogalactopyranoside (ITPG) at a final concentration of […], and purified using nickel affinity chromatography. Full length His-tagged S. aureus SPase protein was expressed similarly from E. coli BL21(DE3) containing the plasmid pCDF1-SaSpsB or pCDF1-SaSpsB(P29S) and purified similarly to the E. coli protein with the following exceptions. SPase protein was solubilized using 300 mM NaCl, 20 mM Tris pH 8.06, 5 mM Imidazole, 10% glycerol, 1% Triton X-100, prior to purification in Ni-NTA Superflow resin and resin bound protein was washed in a similar buffer containing 1% Elugent in place of Triton X-100 prior to protein eluted in wash buffer supplemented with 300 mM imidazole. Protein purify was judged to exceed 95% by visual inspection of SDS-PAGE followed by Comassie staining. All protein concentrations were determined by BCA assay.
(§2) Steady state binding constants (Kds) of compounds were determined by measuring an increase in fluorescence (λex=280 nm, λem=405 nm) that occurs upon binding to E. coli or S. aureus SPase protein. Two-fold serial dilutions of compounds were prepared in 100% DMSO, and compounds were diluted into binding buffer consisting of 100 mM NaCl, 20 mM Tris-HCl pH 7.4, 1 mM EDTA, 1% n-octyl-3-glucopyranoside (Anatrace), and 10% glycerol, with the final DMSO concentration equal to 1%. 70 μl of the resulting solutions containing various concentrations of compound in binding buffer were aliquoted into triplicate wells of a black polystyrene 384-well plate. 5 μl of blank solution or E. coli or S. aureus protein at concentrations of 750 or 3750 nM respectively, were added to each set of wells for a given inhibitor concentration. Plates were incubated for 14 hours and fluorescence read on an EnVision Multilable plate reader (Perkin Elmer™). Differences in fluorescence values between wells with and without protein were determined and background corrected for protein auto fluorescence. The corrected fluorescence difference data was fit to the quadratic equilibrium binding curve using the non-linear regression analysis software Solver (Frontline Systems®) run in Excel 2010, (Microsoft®), using experimentally determined quantum efficiency constants to convert fluorescence into nanomoles of protein/compound complex.

E. coli SPase = molecular target: T2, E. coli SPase (Escherichia coli, UniProt P00803); assay: as above
T2 construct: Full length His-tagged E. coli SPase proteins were expressed in E. coli BL21(DE3); His-tag; made in house; host or cells: E. coli BL21(DE3)
Protocol: as §1, §2

S. agalactiae ATCC 13813 = assay: In vitro antimicrobial activity, MIC by broth micro-dilution; type: cell-based
R. equi DSM 6939 = assay: as above; type: cell-based
Outline: (§3)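 CLSI broth micro-dilution MIC against two-fold serial compound dilutions. Inoculum came from colonies grown 24 h at 35° C. or 28° C., suspended in cation-adjusted Mueller Hinton broth at 1*10^7 CFU/ml, of which 5 μl was added per 100 μl well. LepB(P84L) is a proline-mutant SPase strain with heightened arylomycin susceptibility.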

C. glutamicum DSM 44475 = assay: as above; type: cell-based
[1] = tested on: S. aureus NCTC-8325 SpsB(P295); assay: as above; type: cell-based
[2] = tested on: S. epidermidis ATCC 12228; assay: as above; type: cell-based
S. pyogenes ATCC 19615 = assay: as above; type: cell-based
S. aureus ATCC 29213 = assay: as above; type: cell-based
[3] = tested on: P. aeruginosa PA01 LepB(P84L); assay: as above; type: cell-based
Outline: as §3

S. pyogenes M15448 = assay: as above; type: cell-based; settings: S. pyogenes M15448
Outline: as §3

S. epidermidis RP62A = assay: as above; type: cell-based; settings: S. epidermidis RP62A
[4] = tested on: S. epidermidis RP62A SpsIB(S31P); assay: as above; type: cell-based
[5] = tested on: S. epidermidis RP62A SpsIB(S29P); assay: as above; type: cell-based
S. agalactiae COH-1 = assay: as above; type: cell-based; settings: S. agalactiae COH-1
S. pneumoniae R800 = assay: as above; type: cell-based
Outline: as §3

[6] = tested on: E. coli MIG1655 LepB(P84L); assay: as above; type: cell-based
Outline: as §3

S. pneumoniae D39 = assay: as above; type: cell-based; settings: S. pneumoniae D39
E. coli MIG1655 = assay: as above; type: cell-based
Outline: as §3

P. aeruginosa PA01 = assay: as above; type: cell-based
Outline: as §3

[7] = S. epidermidis RP62A SpsIB(S31P)
[8] = S. epidermidis RP62A SpsIB(S29P)
[9] = Streptococcus agalactiae, ATCC13813, read-out: MIC
[10] = Rhodococcus (subgen. Prescottella) equi, DSM6939, read-out: MIC
[11] = Corynebacterium glutamicum, DSM44475, read-out: MIC
[12] = Staphylococcus aureus, NCTC8325
[13] = Staphylococcus epidermidis, ATCC12228, read-out: MIC
[14] = Streptococcus pyogenes, ATCC19615, read-out: MIC
[15] = Staphylococcus aureus, ATCC29213, read-out: MIC
[16] = Streptococcus pyogenes, read-out: MIC
[17] = Staphylococcus epidermidis, read-out: MIC
[18] = Streptococcus agalactiae, COH1, read-out: MIC
[19] = Streptococcus pneumoniae, read-out: MIC

For `CCCCCCCCCCCCCCCC(=O)N(C)[C@H](CO)C(=O)N[C@H](C)C(=O)NCC(=O)N(C)[C@@H]1C(=O)N[C@@H](C)C(=O)N[C@H](C(=O)N[C@@H](C)C(=O)NS(C)(=O)=O)Cc2ccc(O)c(c2)-c2cc1ccc2O` [Compound 23], the Kd (S. aureus SPase; in vitro equilibrium Kd, read-out: Kd S. aureus SPase) was 8900 nM, the Kd (E. coli SPase; in vitro equilibrium Kd, read-out: Kd E. coli SPase) was 3000 nM and the MIC (S. agalactiae ATCC 13813) was 32 µg/mL (≈ 31.1 µM). The MIC (R. equi DSM 6939) was greater than 64 µg/mL, the MIC (C. glutamicum DSM 44475) was 8 µg/mL (≈ 7.77 µM) and the MIC ([1]; S. aureus NCTC-8325 SpsB(P295)) was 8 µg/mL (≈ 7.77 µM). The MIC [2] was 8 µg/mL (≈ 7.77 µM), the MIC (S. pyogenes ATCC 19615) was 16 µg/mL (≈ 15.5 µM) and the MIC (S. aureus ATCC 29213) was greater than 64 µg/mL. For the same compound, the MIC ([3]; P. aeruginosa PA01 LepB(P84L)) was greater than 64 µg/mL, the MIC (S. pyogenes M15448) was 16 µg/mL (≈ 15.5 µM) and the MIC (S. epidermidis RP62A) was 2 µg/mL (≈ 1.94 µM). The MIC [4, 7] was greater than 64 µg/mL, the MIC [5, 8] was 16 µg/mL (≈ 15.5 µM) and the MIC (S. agalactiae COH-1) was greater than 64 µg/mL. It also gave an MIC (S. pneumoniae R800) of 8 µg/mL (≈ 7.77 µM), an MIC ([6]; E. coli MIG1655 LepB(P84L)) of 8 µg/mL (≈ 7.77 µM) and an MIC (S. pneumoniae D39) of 8 µg/mL (≈ 7.77 µM).

`CCCCCCCCCCCCCCCC(=O)N(C)[C@H](CO)C(=O)N[C@H](C)C(=O)NCC(=O)N(C)[C@@H]1C(=O)N[C@@H](C)C(=O)N[C@H](C(=O)NCC(=O)O)Cc2ccc(O)c(c2)-c2cc1ccc2O` [Compound 24] was tested, and the Kd (S. aureus SPase) was 2900 nM, the Kd (E. coli SPase) was 1100 nM and the MIC (S. agalactiae ATCC 13813; [9]) was 64 µg/mL (≈ 68.2 µM). The MIC (R. equi DSM 6939; [10]) was greater than 64 µg/mL, the MIC (C. glutamicum DSM 44475; [11]) was 64 µg/mL (≈ 68.2 µM) and the MIC [1, 12] was 32 µg/mL (≈ 34.1 µM). For the same compound, the MIC [2, 13] was 32 µg/mL (≈ 34.1 µM), the MIC (S. pyogenes ATCC 19615; [14]) was 8 µg/mL (≈ 8.53 µM) and the MIC (S. aureus ATCC 29213; [15]) was greater than 64 µg/mL. For the same compound, the MIC ([3]; Pseudomonas aeruginosa) was 32 µg/mL (≈ 34.1 µM), the MIC (S. pyogenes M15448; [16]) was 16 µg/mL (≈ 17.1 µM) and the MIC (S. epidermidis RP62A; [17]) was 2 µg/mL (≈ 2.13 µM). The MIC ([4]; Staphylococcus epidermidis) was greater than 64 µg/mL, the MIC ([5]; Staphylococcus epidermidis) was greater than 64 µg/mL and the MIC (S. agalactiae COH-1; [18]) was greater than 64 µg/mL. The MIC (S. pneumoniae R800; [19]) was 8 µg/mL (≈ 8.53 µM), the MIC ([6]; Escherichia coli) was 4 µg/mL (≈ 4.26 µM) and the MIC (S. pneumoniae D39; [19]) was 4 µg/mL (≈ 4.26 µM).

`CCCCCCCCCCCCCCCC(=O)N(C)[C@H](CO)C(=O)N[C@H](C)C(=O)NCC(=O)N(C)[C@@H]1C(=O)N[C@@H](C)C(=O)N[C@H](C(=O)NC(C)C=O)Cc2ccc(O)c(c2)-c2cc1ccc2O` (stereo partly drawn) [Compound 33] showed an MIC (S. agalactiae ATCC 13813; [9]) greater than 64 µg/mL, an MIC (R. equi DSM 6939; [10]) of 64 µg/mL (≈ 68.4 µM) and an MIC (C. glutamicum DSM 44475; [11]) of 64 µg/mL (≈ 68.4 µM). For the same compound, the MIC [1, 12] was 64 µg/mL (≈ 68.4 µM), the MIC (E. coli MIG1655; Escherichia coli, MIG1655) was greater than 64 µg/mL and the MIC [2, 13] was greater than 64 µg/mL. The MIC (S. pyogenes ATCC 19615; [14]) was 16 µg/mL (≈ 17.1 µM), the MIC (S. aureus ATCC 29213; [15]) was greater than 64 µg/mL and the MIC ([3]; Pseudomonas aeruginosa) was greater than 64 µg/mL. For the same compound, the MIC (S. pyogenes M15448; [16]) was 16 µg/mL (≈ 17.1 µM), the MIC (S. epidermidis RP62A; [17]) was 64 µg/mL (≈ 68.4 µM) and the MIC ([4]; Staphylococcus epidermidis) was 64 µg/mL (≈ 68.4 µM). The MIC ([5]; Staphylococcus epidermidis) was 64 µg/mL (≈ 68.4 µM), the MIC (S. agalactiae COH-1; [18]) was 64 µg/mL (≈ 68.4 µM) and the MIC (S. pneumoniae R800; [19]) was 32 µg/mL (≈ 34.2 µM). The MIC ([6]; Escherichia coli) was 64 µg/mL (≈ 68.4 µM), the MIC (S. pneumoniae D39; [19]) was 32 µg/mL (≈ 34.2 µM) and the MIC (P. aeruginosa PA01; Pseudomonas aeruginosa, read-out: MIC) was greater than 64 µg/mL.

`CCCCCCCCCCCCCCCC(=O)N[C@H](CC(N)=O)C(=O)N[C@H](C)C(=O)NCC(=O)N(C)[C@@H]1C(=O)N[C@@H](C)C(=O)N[C@H](C(=O)O)Cc2ccc(O)c(c2)-c2cc1ccc2O` [Compound 34] showed an MIC (S. agalactiae ATCC 13813) greater than 64 µg/mL, an MIC (R. equi DSM 6939) greater than 64 µg/mL and an MIC (C. glutamicum DSM 44475) greater than 64 µg/mL. For the same compound, the MIC ([1]; S. aureus NCTC-8325 SpsB(P295)) was greater than 64 µg/mL, the MIC (E. coli MIG1655; E. coli MIG1655) was greater than 64 µg/mL and the MIC [2] was greater than 64 µg/mL. The MIC (S. pyogenes ATCC 19615) was greater than 64 µg/mL, the MIC (S. aureus ATCC 29213) was greater than 64 µg/mL and the MIC ([3]; P. aeruginosa PA01 LepB(P84L)) was greater than 64 µg/mL. It also gave an MIC (S. pyogenes M15448) greater than 64 µg/mL, an MIC (S. epidermidis RP62A) greater than 64 µg/mL and an MIC [4, 7] greater than 64 µg/mL. For the same compound, the MIC [5, 8] was greater than 64 µg/mL, the MIC (S. agalactiae COH-1) was greater than 64 µg/mL and the MIC (S. pneumoniae R800) was greater than 64 µg/mL. It also gave an MIC ([6]; E. coli MIG1655 LepB(P84L)) greater than 64 µg/mL, an MIC (S. pneumoniae D39) greater than 64 µg/mL and an MIC (P. aeruginosa PA01) greater than 64 µg/mL.
